Patent US5053408A, “Hexitol derivatives having vasodilative activity” (Kyowa Hakko Kogyo Co., Ltd., priority 1989, dated 1991)
Where a name gives a salt, the structure may show the parent alone. Read-outs that look alike come from different tables or passages of the source.

Key:
[1] = tested on: coronary vasospasm model (lysine-vasopressin); assay: Effects on coronary vasospasm model (lysine-vasopressin test), inhibition of ST-segment elevation; type: in vivo, male Wistar rats; details: Rattus norvegicus
male dd-mice = assay: Acute toxicity; details: mouse, in vivo, 10080 min; for MLD i.p.: ip; for MLD p.o.: po
Description: The compounds were orally administered and intraperitoneally administered to male dd-mice weighing 20 to 25 g. […] was determined by observing the mortality for seven days after the administration.

[2] = po, 30 min before anesthetization, lysine-vasopressin 0.3 I.U./kg iv, MED = minimum dose with depression rate of 20% or higher, read-out: Coronary vasoconstriction model MED p.o.
[3] = ip, 20 min before anesthetization, lysine-vasopressin 0.3 I.U./kg iv, MED = minimum dose with depression rate of 20% or higher, read-out: Coronary vasoconstriction model MED i.p.

| SMILES | minimal effective dose [1, 2] [mg/kg] | MLD i.p. (male dd-mice) [mg/kg] | MLD p.o. (male dd-mice) [mg/kg] | minimal effective dose [1, 3] [mg/kg] | minimal effective dose ([1]; ip, read-out: Coronary vasoconstriction model MED i.p.) [mg/kg] | minimal effective dose ([1]; po, read-out: Coronary vasoconstriction model MED p.o.) [mg/kg] |
| --- | --- | --- | --- | --- | --- | --- |
| O=[N+]([O-])O[C@H]1CO[C@H]2[C@@H]1OC[C@@H]2N1CCN(CCCSc2ccncc2)CC1 [Compound 12, 5-Deoxy-5-[4-[3-(pyridin-4-ylthio)propyl]piperazin-1-yl]-1.4;3.6-dianhydro-L-iditol 2-nitrate hydrochloride] | < 30 | > 100 | > 300 |  |  |  |
| O=C(c1cccnc1)N1CCN([C@H]2CO[C@H]3[C@@H]2OC[C@@H]3O[N+](=O)[O-])CC1 [Compound 80] | < 30 | > 100 | > 300 | < 25 |  |  |
| Cc1cc2ncn(CCCN3CCN([C@H]4CO[C@H]5[C@@H]4OC[C@@H]5O[N+](=O)[O-])CC3)c2cc1C [Compound 23, 5-Deoxy-5-[4-[3-(5,6-dimethylbenzimidazol-1-yl)propyl]-piperazin-1-yl]-1.4;3.6-dianhydro-L-iditol 2-nitrate hydrochloride] | < 30 | > 100 | > 300 |  |  |  |
| O=C(c1ccco1)N1CCN([C@H]2CO[C@H]3[C@@H]2OC[C@@H]3O[N+](=O)[O-])CC1 [Compound 83, 5-Deoxy-5-[4-(furan-2-yl)carbonylpiperazin-1-yl]-1.4;3.6-dianhydro-L-iditol2-nitrate hydrochloride] | < 30 | > 100 | > 300 |  |  |  |
| O=C(NCCO[N+](=O)[O-])c1cccnc1 [Nicorandil, reference compound] |  |  |  | < 30 |  |  |
| O=[N+]([O-])O[C@H]1CO[C@H]2[C@@H]1OC[C@@H]2N1CCN(CCCSc2ccccc2)CC1 [Compound 1, 5-Deoxy-5-[4-(3-phenylthiopropyl)piperazin-1-yl]-1.4;3.6-dianhydro-L-iditol2-nitrate hydrochloride] | < 30 | > 100 | > 150 | < 25 |  |  |
| O=C(O)Cc1ccc(SCCCN2CCN([C@H]3CO[C@H]4[C@@H]3OC[C@@H]4O[N+](=O)[O-])CC2)cc1 [Compound 16, 5-[4-[3-(4-Carboxymethylphenylthio)propyl]piperazin-1-yl]-5-deoxy-1.4;3.6-dianhydro-L-iditol 2-nitrate] | < 30 | > 100 | > 300 |  |  |  |
| O=[N+]([O-])O[C@H]1CO[C@H]2[C@@H]1OC[C@@H]2N1CCN(c2nc3ccccc3s2)CC1 [Compound 58, 5-[4-(Benzothiazol-2-yl)piperazin-1-yl]-5-deoxy-1.4;3.6-dianhydro-L-iditol 2-nitrate hydrochloride] |  | > 100 | > 300 | < 25 |  |  |
| O=[N+]([O-])O[C@H]1CO[C@H]2[C@@H]1OC[C@@H]2N1CCN(CCCn2cc3ccccc3n2)CC1 [Compound 31, 5-Deoxy-5-[4-[3-(indazol-2-yl)propyl]piperazin-1-yl]-1.4; 3.6-dianhydro-L-iditol 2-nitrate hydrochloride] |  | > 100 | > 300 | < 25 |  |  |
| COc1ccc(C(=O)N2CCN([C@H]3CO[C@H]4[C@@H]3OC[C@@H]4O[N+](=O)[O-])CC2)c(OC)c1OC [Compound 87, 5-Deoxy-5-[4-(2,3,4-trimethoxybenzoyl)piperazin-1-yl]-1.4;3.6-dianhydro-L-iditol 2-nitratehydrochloride] | < 30 | > 100 | > 300 |  |  |  |
| O=C(c1cccnc1)N1CCN([C@H]2CO[C@H]3[C@@H]2OC[C@@H]3O)CC1 [Compound 117, 5-Deoxy-5-[4-(pyridin-3-yl)carbonylpiperazin-1-yl]-1.4;3.6-dianhydro-L-iditol] |  |  |  |  | < 25 | < 30 |
